Source: patent publication US9371331B2, “Modulators of methyl modifying enzymes, compositions and uses thereof” (Constellation Pharmaceuticals, Inc., priority 2012, dated 2016)
Like-named read-outs stand apart in the source and are kept apart here.

Key:
EZH2 (rPRC2) = EZH2 (rPRC2) (Homo sapiens, UniProt Q15910); assay: EZH2 assay: rPRC2, biotinylated oligonucleosomes, 3H SAM methyl transfer (FlashPlate scintillation); assay type: biochemical; conditions: biotinylated oligonucleosome substrate
Method: Assays were carried out by mixing rPRC2 together with biotinylated oligonucleosome substrates in the presence of the radio-labeled enzyme co-factor, S-adenosyl-1-methionine (^3H SAM) (Perkin Elmer) and monitoring the enzymatically mediated transfer of tritiated methyl groups from ^3H SAM to histone lysine residues. The amount of resulting tritiated methyl histone product was measured by first capturing the biotinylated oligonucleosomes in streptavidin (SAV) coated FlashPlates (Perkin Elmer), followed by a wash step to remove un-reacted ^3H SAM, and then counting on a TopCount NXT 384 well plate scintillation counter (Perkin Elmer). The final assay conditions for EZH2 were as follows: 50 mM Tris Buffer pH 8.5, 1 mM DTT, 69 μM Brij-35 detergent, 5.0 mM MgCl2, 0.1 mg/mL BSA, 0.2 μM ^3H SAM, 0.2 μM biotinylated oligonucleosomes, 3.6 μM H3K27 mc3 peptide and 2 nM EZH2.
A 12.5 μL volume of the HMT enzyme, H3K27me3 peptide and oligonucleosome substrate in assay buffer was added to each well of the assay plate using a Multidrop Combi (ThermoFisher). Compounds were pre-incubated with the enzyme for 20 min, followed by initiation of the methyltransferase reaction by addition of 12.5 μL of ^3H SAM in assay buffer (final volume=25 μL). The final concentrations of compounds ranged from a top default concentration of 80 μM down to 0.16 μM in ten 2-fold dilution steps. Reactions were carried out for 60 minutes and quenched with 20 μL per well of 1.96 mM SAH, 50 mM Tris pH 8.5, 200 mM EDTA. Stopped reactions were transferred to SAV coated Flashplates (Perkin Elmer), incubated for 120 min, washed with a plate washer, and then read on the TopCount NXT (1.0 min/well) to measure the amount of methyl histone product formed during the reaction.

Y641N EZH2 = Y641N EZH2 (Homo sapiens, UniProt Q15910, Y641N); assay: Y641N EZH2 assay: as EZH2 assay, with reconstituted H3K27Me2 oligonucleosomes as substrate; assay type: biochemical
[1] = EZH2 IC50, wild-type EZH2 (rPRC2)
[2] = Y641N EZH2 IC50, Y641N mutant EZH2, H3K27Me2 oligonucleosome substrate
[3] = wild-type EZH2 (rPRC2), read-out: EZH2 IC50

EZH2 (rPRC2), sequence (Q15910 whole entry): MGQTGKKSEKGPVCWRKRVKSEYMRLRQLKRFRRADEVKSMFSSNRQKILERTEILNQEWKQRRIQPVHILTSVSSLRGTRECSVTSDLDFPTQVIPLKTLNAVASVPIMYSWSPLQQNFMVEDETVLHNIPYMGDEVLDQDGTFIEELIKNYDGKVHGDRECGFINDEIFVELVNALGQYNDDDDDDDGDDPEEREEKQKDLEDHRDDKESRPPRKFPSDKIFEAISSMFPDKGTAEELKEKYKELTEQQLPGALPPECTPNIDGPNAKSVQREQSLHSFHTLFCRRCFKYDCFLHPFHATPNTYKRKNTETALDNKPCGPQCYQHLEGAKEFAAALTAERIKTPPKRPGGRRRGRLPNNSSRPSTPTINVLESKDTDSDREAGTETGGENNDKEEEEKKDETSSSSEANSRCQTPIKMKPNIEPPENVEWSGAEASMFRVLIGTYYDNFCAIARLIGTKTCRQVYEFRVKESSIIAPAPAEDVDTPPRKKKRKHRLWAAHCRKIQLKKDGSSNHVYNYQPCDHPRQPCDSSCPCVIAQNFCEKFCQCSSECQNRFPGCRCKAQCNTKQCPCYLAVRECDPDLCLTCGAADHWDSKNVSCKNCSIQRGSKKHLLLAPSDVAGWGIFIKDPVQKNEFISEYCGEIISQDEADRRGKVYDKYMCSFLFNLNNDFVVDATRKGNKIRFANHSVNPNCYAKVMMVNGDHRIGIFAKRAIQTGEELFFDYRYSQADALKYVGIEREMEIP
EZH2 (rPRC2), sequence (O75530 whole entry partner): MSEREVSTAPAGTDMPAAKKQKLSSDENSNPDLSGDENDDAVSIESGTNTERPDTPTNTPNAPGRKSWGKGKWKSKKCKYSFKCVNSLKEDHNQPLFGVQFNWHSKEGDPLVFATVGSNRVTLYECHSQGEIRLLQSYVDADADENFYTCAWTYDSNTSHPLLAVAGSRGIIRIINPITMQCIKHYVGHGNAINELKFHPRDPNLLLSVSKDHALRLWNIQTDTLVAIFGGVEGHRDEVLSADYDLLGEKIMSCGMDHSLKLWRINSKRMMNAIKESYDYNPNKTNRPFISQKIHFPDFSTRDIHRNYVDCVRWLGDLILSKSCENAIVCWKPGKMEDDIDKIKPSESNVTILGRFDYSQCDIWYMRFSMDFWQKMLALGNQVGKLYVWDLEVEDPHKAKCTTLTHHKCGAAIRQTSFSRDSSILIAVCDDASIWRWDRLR
EZH2 (rPRC2), sequence (Q15022 whole entry partner): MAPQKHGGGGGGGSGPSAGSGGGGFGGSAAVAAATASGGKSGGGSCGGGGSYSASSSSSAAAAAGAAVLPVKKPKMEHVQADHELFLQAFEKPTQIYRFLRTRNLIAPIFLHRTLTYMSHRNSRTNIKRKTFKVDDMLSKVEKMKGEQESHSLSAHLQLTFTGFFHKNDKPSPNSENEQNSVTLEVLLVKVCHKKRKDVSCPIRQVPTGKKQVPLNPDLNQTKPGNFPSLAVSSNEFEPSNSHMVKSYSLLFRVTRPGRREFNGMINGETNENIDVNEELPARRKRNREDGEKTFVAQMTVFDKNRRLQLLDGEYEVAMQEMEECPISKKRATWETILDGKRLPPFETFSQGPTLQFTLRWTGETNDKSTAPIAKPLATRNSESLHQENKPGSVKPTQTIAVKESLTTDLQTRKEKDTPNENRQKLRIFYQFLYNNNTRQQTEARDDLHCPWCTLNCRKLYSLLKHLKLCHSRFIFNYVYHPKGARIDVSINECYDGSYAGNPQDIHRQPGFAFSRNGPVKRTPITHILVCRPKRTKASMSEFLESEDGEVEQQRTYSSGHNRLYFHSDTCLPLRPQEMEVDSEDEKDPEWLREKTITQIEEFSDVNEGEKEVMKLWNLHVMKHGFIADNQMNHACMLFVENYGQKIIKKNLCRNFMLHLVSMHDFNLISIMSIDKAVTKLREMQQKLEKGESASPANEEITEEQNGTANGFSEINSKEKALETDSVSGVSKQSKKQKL
Y641N EZH2, sequence (Q15910 whole entry Y641N): as the sequence (Q15910 whole entry) above, with Y641N counted along it
Y641N EZH2, sequence (O75530 whole entry partner): as the sequence (O75530 whole entry partner) above
Y641N EZH2, sequence (Q15022 whole entry partner): as the sequence (Q15022 whole entry partner) above

SMILES | IC50 (EZH2 (rPRC2); [1]) [nM] | IC50 (Y641N EZH2; [2]) [nM] | other results
Cc1cc(C)c(CNC(=O)c2c(C)n(C(C)c3ccccc3)c3cccnc23)c(O)n1 (racemic) [Compound 126, N-((2-hydroxy-4,6-dimethylpyridin-3-yl)methyl)-2-methyl-1-(1-phenylethyl)-1H-pyrrolo[3,2-b]pyridine-3-carboxamide] | 100 to 1000 | 1000 to 10000 | 
Cc1cc(C)c(CNC(=O)c2c(C3CC3)n(C(C)c3ccccc3)c3ccccc23)c(O)n1 (racemic) [Compound 131, (±)-2-cyclopropyl-N-((2-hydroxy-4,6-dimethylpyridin-3-yl)methyl)-1-(1-phenylethyl)-1H-indole-3-carboxamide] |  |  | EZH2 IC50 (EZH2 (rPRC2); wild-type EZH2 (rPRC2)): *(1.0 μM); Y641N EZH2 IC50 (Y641N EZH2; Y641N mutant EZH2, H3K27Me2 oligonucleosome substrate): *(1.0 μM)
Cc1cc(C)c(CNC(=O)c2c(C)n(C(C)c3ccccc3)c3c(=O)n(C)ccc23)c(=O)[nH]1 (racemic) [Compound 139, N-((4,6-dimethyl-2-oxo-1,2-dihydropyridin-3-yl)methyl)-2,6-dimethyl-7-oxo-1-(1-phenylethyl)-6,7-dihydro-1H-pyrrolo[2,3-c]pyridine-3-carboxamide] |  |  | IC50 (EZH2 (rPRC2); [3]): 100 to 1000 nM; IC50 (Y641N EZH2; Y641N mutant EZH2, H3K27Me2 oligonucleosome substrate, read-out: Y641N EZH2 IC50): 1000 to 10000 nM
Cc1cc(C)c(CNC(=O)c2c(C)n(C(C)c3ccccc3C)c3ccccc23)c(=O)[nH]1 (racemic) [Compound 174, (±)-N-((4,6-dimethyl-2-oxo-1,2-dihydropyridin-3-yl)methyl)-2-methyl-1-(1-(o-tolyl)ethyl)-1H-indole-3-carboxamide] | 100 to 1000 | 1000 to 10000 | 
Cc1cc(C)c(CNC(=O)c2c(C)n(C(C)c3ccccc3C#N)c3ccccc23)c(=O)[nH]1 (racemic) [Compound 178, (±)-1-(1-(2-cyanophenyl)ethyl)-N-((4,6-dimethyl-2-oxo-1,2-dihydropyridin-3-yl)methyl)-2-methyl-1H-indole-3-carboxamide] | 100 to 1000 | 1000 to 10000 | 
Cc1cc(C)c(CNC(=O)c2c(C)n(C(C)c3ccc(S(C)(=O)=O)cc3)c3ccccc23)c(=O)[nH]1 (racemic) [Compound 179, (±)-N-((4,6-dimethyl-2-oxo-1,2-dihydropyridin-3-yl)methyl)-2-methyl-1-(1-(4-(methylsulfonyl)phenyl)ethyl)-1H-indole-3-carboxamide] | < 100 | 100 to 1000 | 
CCC(C)n1c(C)c(C(=O)NCc2c(C)cc(C)[nH]c2=O)c2cccnc21 (racemic) [Compound 185, (±)-1-(sec-butyl)-N-((4,6-dimethyl-2-oxo-1,2-dihydropyridin-3-yl)methyl)-2-methyl-1H-pyrrolo[2,3-b]pyridine-3-carboxamide] | 100 to 1000 | 1000 to 10000 | 
COc1ccccc1C(C)n1c(C)c(C(=O)NCc2c(C)cc(C)[nH]c2=O)c2ccccc21 (racemic) [Compound 186, (±)-N-((4,6-dimethyl-2-oxo-1,2-dihydropyridin-3-yl)methyl)-1-(1-(2-methoxyphenyl)ethyl)-2-methyl-1H-indole-3-carboxamide] | 100 to 1000 | 100 to 1000 | 
Cc1cc(C)c(CNC(=O)c2c(C)n(C(C)CCO)c3ncccc23)c(=O)[nH]1 (racemic) [Compound 193, (±)-N-((4,6-dimethyl-2-oxo-1,2-dihydropyridin-3-yl)methyl)-1-(4-hydroxybutan-2-yl)-2-methyl-1H-pyrrolo[2,3-b]pyridine-3-carboxamide] | 100 to 1000 | 1000 to 10000 | 
Cc1cc(C)c(COC(=O)c2c(C)n(C3CCOC3)c3ncccc23)c(=O)[nH]1 (racemic) [Compound 202, (±)-(4,6-dimethyl-2-oxo-1,2-dihydropyridin-3-yl)methyl 2-methyl-1-(tetrahydrofuran-3-yl)-1H-pyrrolo[2,3-b]pyridine-3-carboxylate] | 100 to 1000 | 1000 to 10000 | 
Cc1cc(C)c(CNC(=O)c2c(C)n(C(C)c3cccc(-c4ccncn4)c3)c3ccccc23)c(=O)[nH]1 (racemic) [Compound 205, (±)-N-((4,6-dimethyl-2-oxo-1,2-dihydropyridin-3-yl)methyl)-2-methyl-1-(1-(3-(pyrimidin-4-yl)phenyl)ethyl)-1H-indole-3-carboxamide] | 100 to 1000 | 100 to 1000 | 
COc1cccc(C(C)n2c(C)c(C(=O)NCc3c(C)cc(C)[nH]c3=O)c3cccnc32)c1 (racemic) [Compound 206, (±)-N-((4,6-dimethyl-2-oxo-1,2-dihydropyridin-3-yl)methyl)-1-(1-(3-methoxyphenyl)ethyl)-2-methyl-1H-pyrrolo[2,3-b]pyridine-3-carboxamide] | 100 to 1000 | 1000 to 10000 | 
COc1cc(C)[nH]c(=O)c1CNC(=O)c1c(C)n(C(C)C#N)c2ncccc12 (racemic) [Compound 214, (±)-1-(1-cyanoethyl)-N-((4-methoxy-6-methyl-2-oxo-1,2-dihydropyridin-3-yl)methyl)-2-methyl-1H-pyrrolo[2,3-b]pyridine-3-carboxamide] | 100 to 1000 | 1000 to 10000 | 
CCCc1cc(C)[nH]c(=O)c1CNC(=O)c1c(C)n(C(C)COC)c2ncccc12 (racemic) [Compound 216, (±)-1-(1-methoxypropan-2-yl)-2-methyl-N-((6-methyl-2-oxo-4-propyl-1,2-dihydropyridin-3-yl)methyl)-1H-pyrrolo[2,3-b]pyridine-3-carboxamide] | 100 to 1000 | 1000 to 10000 | 
CCC(c1ccccc1)n1c(C)c(C(=O)NCc2c(C)cc(C)[nH]c2=O)c2cccnc21 (racemic) [Compound 220, (±)-N-((4,6-dimethyl-2-oxo-1,2-dihydropyridin-3-yl)methyl)-2-methyl-1-(1-phenylpropyl)-1H-pyrrolo[2,3-b]pyridine-3-carboxamide] | < 100 | 100 to 1000 | 
Cc1cc(C)c(CNC(=O)c2cnn(C(C)c3ccccc3)c2C)c(O)n1 (single isomer, unassigned) [Compound 108, (R or S)—N-((2-hydroxy-4,6-dimethylpyridin-3-yl)methyl)-5-methyl-1-(1-phenylethyl)-1H-pyrazole-4-carboxamide] |  |  | IC50 (EZH2 (rPRC2); [3]): > 10000 nM
COc1cc(C)[nH]c(=O)c1CNC(=O)c1c(C)n(C(C)c2ccccc2)c2ccccc12 (single isomer, unassigned) [Compound 115, (S or R)N-((4-methoxy-6-methyl-2-oxo-1,2-dihydropyridin-3-yl)methyl)-2-methyl-1-(1-phenylethyl)-1H-indole-3-carboxamide] |  |  | IC50 (EZH2 (rPRC2); read-out: EZH2 IC50, wild-type EZH2 (rPRC2)): < 100 nM
Cc1cc(C)c(CNC(=O)c2c(C)n(C(C)c3ccccc3)c3ncccc23)c(=O)[nH]1 (single isomer, unassigned) [Compound 117, N-((4,6-dimethyl-2-oxo-1,2-dihydropyridin-3-yl)methyl)-2-methyl-1-(1-phenylethyl)-1H-pyrrolo[2,3-b]pyridine-3-carboxamide] |  |  | IC50 (Y641N EZH2; read-out: Y641N EZH2 IC50, Y641N mutant EZH2, H3K27Me2 oligonucleosome substrate): 100 to 1000 nM
CCC(C)n1c(C)c(C(=O)NCc2c(C)cc(C)[nH]c2=O)c2cccnc21 (single isomer, unassigned) [Compound 196, (R or S)-1-(sec-butyl)-N-((4,6-dimethyl-2-oxo-1,2-dihydropyridin-3-yl)methyl)-2-methyl-1H-pyrrolo[2,3-b]pyridine-3-carboxamide] |  | 100 to 1000 | 
Cc1cc(C)c(CNC(=O)c2c(-c3ccccc3)n(C(C)c3ccccc3)c3ccccc23)c(O)n1 (single isomer, unassigned) [Compound 446, (R or S)-N-((2-hydroxy-4,6-dimethylpyridin-3-yl)methyl)-2-phenyl-1-(1-phenylethyl)-1H-indole-3-carboxamide] |  |  | EZH2 IC50 (EZH2 (rPRC2); wild-type EZH2 (rPRC2)): *(10 uM)
